Results as given in the CheMixHub ionic liquid set.
Values joined by “and” are separate entries in the source; they are usually repeats but may differ in a detail not shown here. Equal values may be shown once. ± gives the uncertainty stated by the source.

Assay: xn = mol fraction of the nth substance listed

CCCCCCCCCCCCCC[P+](CCCCCC)(CCCCCC)CCCCCC.O=S(=O)([N-]S(=O)(=O)C(F)(F)F)C(F)(F)F + COCCOCCOCCOCCOC
viscosity [mPa·s], 100 kPa
Conditions | 278.15 K | 283.15 K | 288.15 K | 293.15 K | 298.15 K | 303.15 K | 313.15 K | 323.15 K
x2 = 0.191 | 589 ± 30 | 414 ± 19 | 299 ± 12 | 221 ± 7 | 168 ± 5 | 130 ± 3 | 83 ± 1 | 60 ± 1
x2 = 0.366 | 281 ± 11 | 207 ± 7 | 157 ± 4 | 121 ± 3 | 96 ± 2 | 77 ± 1 | 52 ± 1 | –
x2 = 0.559 | 111 ± 3 | 85 ± 1 | 67 ± 1 | 54 ± 1 | – | – | – | –
x2 = 0.664 | 64 ± 1 | 51 ± 1 | – | – | – | – | – | –

CCCCCCCCn1cc[n+](C)c1.F[B-](F)(F)F + O
100 kPa
Conditions | viscosity [mPa·s]
298.15 K, x2 = 0.9487 | 5.25 ± 0.26
308 K, x1 = 0.5482 | 34.91 ± 0.76

CCCCCCCC[N+](C)(CCCCCCCC)CCCCCCCC.[Cl-] + COC(=O)OC
101 kPa
Conditions | electrical conductivity | viscosity [mPa·s]
298.15 K, x1 = 0.002 | 0.00012 ± 7.4e-06 S/m | –
298.15 K, x1 = 0.006 | 0.000267 ± 1.6e-05 S/m | –
298.15 K, x1 = 0.011 | 0.000601 ± 3.7e-05 S/m | –
298.15 K, x1 = 0.015 | 0.000944 ± 6.2e-05 S/m | –
298.15 K, x2 = 0 | 0.0026 ± 0.0002 S/m | 2391 ± 800
298.15 K, x2 = 0.67 | 0.015 ± 0.0009 S/m | 58.07 ± 0.9
298.15 K, x2 = 0.88 | 0.026 ± 0.0017 S/m | 5.19 ± 0.15
298.15 K, x2 = 0.98 | 0.00126 ± 8e-05 S/m | –
303.15 K, x1 = 0.002 | 0.000143 ± 9.1e-06 S/m | –
303.15 K, x1 = 0.006 | 0.000346 ± 2.2e-05 S/m | –
303.15 K, x1 = 0.011 | 0.00075 ± 4.7e-05 S/m | –
303.15 K, x1 = 0.015 | 0.00122 ± 7.4e-05 S/m | –
303.15 K, x2 = 0.55 | 0.0126 ± 0.0008 S/m | 123.5 ± 9.9
303.15 K, x2 = 0.98 | 0.00161 ± 9.9e-05 S/m | –
308.15 K, x1 = 0.002 | 0.000199 ± 1.3e-05 S/m | –
308.15 K, x1 = 0.006 | 0.00043 ± 2.7e-05 S/m | –
308.15 K, x2 = 0.76 | 0.0317 ± 0.002 S/m | 15.98 ± 0.38
308.15 K, x2 = 0.95 | 0.0116 ± 0.0007 S/m | 1.21 ± 0.04
308.15 K, x2 = 0.98 | 0.0017 S/m and 0.00175 S/m | 0.71 ± 0.02
313.15 K, x1 = 0.006 | 0.0005 ± 3.1e-05 S/m | –
313.15 K, x1 = 0.011 | 0.00105 ± 6.4e-05 S/m | –
313.15 K, x2 = 0.55 | 0.0201 ± 0.0013 S/m | 78.5 ± 3.2
313.15 K, x2 = 0.92 | 0.0292 ± 0.0018 S/m | 1.9 ± 0.06
313.15 K, x2 = 0.98 | 0.00188 S/m and 0.0019 S/m | 0.67 ± 0.02
318.15 K, x1 = 0.002 | 0.000399 ± 2.4e-05 S/m | –
318.15 K, x1 = 0.006 | 0.00062 ± 4e-05 S/m | –
318.15 K, x1 = 0.011 | 0.00115 ± 6.9e-05 S/m | –
318.15 K, x2 = 0.98 | 0.00197 ± 0.00012 S/m | –

CCCCCCCCn1cc[n+](C)c1.[Br-] + NC(N)=O + O
298.15 K, 100 kPa
Conditions | viscosity [mPa·s]
x2 = 0, x3 = 0.9008 | 31.3 ± 1.6
x2 = 0, x3 = 0.9487 | 7.96 ± 0.45
x2 = 0.008063, x3 = 0.8927 | 31.3 ± 1.6
x2 = 0.008505, x3 = 0.9402 | 7.68 ± 0.44
x2 = 0.01609, x3 = 0.8847 | 31.2 ± 1.6
x2 = 0.02499, x3 = 0.9237 | 7.49 ± 0.38
x2 = 0.03154, x3 = 0.8693 | 30.7 ± 1.6
x2 = 0.03316, x3 = 0.9155 | 7.32 ± 0.42
x2 = 0.03874, x3 = 0.8621 | 30.7 ± 1.6
x2 = 0.04082, x3 = 0.9079 | 7.14 ± 0.41

CCCCCCCCn1cc[n+](C)c1.F[B-](F)(F)F + COC(C)=O
298.15 K, 101 kPa
Conditions | viscosity [mPa·s]
x2 = 0.199 | 100 ± 20
x2 = 0.5512 | 13.82 ± 0.18
x2 = 0.801 | 2.29 ± 0.04
x2 = 0.9515 | 0.63 ± 0.01
